The numbers were not newly measured in patent publication US12594237B2, “Mucoadhesive gel composition” (Viramal Limited, priority 2018, dated 2026), which cites them from elsewhere.

For this data set the following is noted: orally administered.

Regarding `CC(=O)[C@H]1CC[C@H]2[C@@H]3CCC4=CC(=O)CC[C@]4(C)[C@H]3CC[C@]12C` [progesterone], the half-life in serum entry is recorded as “about 5 minutes”.
